Results from ChEMBL document CHEMBL1151069 (Bioorg Med Chem Lett, 1996).
pIC50: −log10 of the molar value. Positions of bridges follow the written chain, without caps; N, C: chain ends. Residues, ends and D or L forms follow the SMILES beside them.

What was measured:
Endothelin-1 receptor = target: T1, Endothelin-1 receptor (Bos taurus, UniProt P21450); assay: Binding activity against Endothelin A receptor expressed from bovine lung membrane preparation; type: tissue-based
T1 sequence (P21450 whole entry): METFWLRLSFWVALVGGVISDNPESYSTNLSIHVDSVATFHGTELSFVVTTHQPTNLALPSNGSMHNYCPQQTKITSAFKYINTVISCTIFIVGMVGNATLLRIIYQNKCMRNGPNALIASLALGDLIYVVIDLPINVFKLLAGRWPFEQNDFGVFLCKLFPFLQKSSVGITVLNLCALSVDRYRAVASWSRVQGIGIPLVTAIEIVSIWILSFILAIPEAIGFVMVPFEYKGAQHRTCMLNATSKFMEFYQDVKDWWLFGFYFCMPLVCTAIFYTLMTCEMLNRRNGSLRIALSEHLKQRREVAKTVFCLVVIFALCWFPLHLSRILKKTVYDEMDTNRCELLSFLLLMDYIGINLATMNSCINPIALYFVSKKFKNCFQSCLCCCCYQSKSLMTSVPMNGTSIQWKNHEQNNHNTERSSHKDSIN

[1] = target: T2, Endothelin receptor type B (Bos taurus, UniProt P28088); assay: Binding activity against Endothelin B receptor expressed from bovine cerebellum membrane preparation; type: tissue-based
T2 sequence (P28088 whole entry): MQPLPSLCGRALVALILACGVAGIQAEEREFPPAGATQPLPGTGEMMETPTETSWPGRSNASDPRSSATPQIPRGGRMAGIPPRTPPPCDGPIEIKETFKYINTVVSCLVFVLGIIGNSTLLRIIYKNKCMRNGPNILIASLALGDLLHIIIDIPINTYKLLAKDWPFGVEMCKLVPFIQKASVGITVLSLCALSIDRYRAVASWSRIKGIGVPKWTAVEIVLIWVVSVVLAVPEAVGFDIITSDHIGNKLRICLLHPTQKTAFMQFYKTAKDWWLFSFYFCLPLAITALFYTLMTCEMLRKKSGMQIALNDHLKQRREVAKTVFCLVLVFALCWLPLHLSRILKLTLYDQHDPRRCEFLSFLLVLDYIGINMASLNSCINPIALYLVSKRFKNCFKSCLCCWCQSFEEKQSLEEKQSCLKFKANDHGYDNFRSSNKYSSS

SMILES	pIC50 (Endothelin-1 receptor)	pIC50 [1]
C[C@@H]1NC(=O)[C@@H]([C@@H](C)O)NC(=O)CNC(=O)[C@@H](Cc2c[nH]cn2)NC(=O)[C@H](Cc2c[nH]c3ccccc23)NC(=O)[C@@H](CC(N)=O)NC(=O)CNC(=O)C[C@H](C(=O)N[C@@H](Cc2c[nH]c3ccccc23)C(=O)N[C@@H](Cc2ccccc2)C(=O)N[C@@H](Cc2ccccc2)C(=O)N[C@@H](CC(N)=O)C(=O)N[C@@H](Cc2ccc(O)cc2)C(=O)N[C@H](Cc2ccc(O)cc2)C(=O)N[C@@H](Cc2c[nH]c3ccccc23)C(=O)O)NC(=O)[C@H]2CCCN2C1=O	< 7.01	–
C[C@@H]1NC(=O)[C@@H]([C@@H](C)O)NC(=O)CNC(=O)[C@@H](Cc2cnc[nH]2)NC(=O)[C@H](Cc2c[nH]c3ccccc23)NC(=O)[C@@H](CC(N)=O)NC(=O)CNC(=O)C[C@H](C(=O)N[C@@H](Cc2c[nH]c3ccccc23)C(=O)N[C@@H](Cc2ccccc2)C(=O)N[C@@H](Cc2ccccc2)C(=O)N[C@@H](CC(N)=O)C(=O)N[C@@H](Cc2ccc(O)cc2)C(=O)N[C@@H](Cc2ccc(O)cc2)C(=O)N[C@@H](Cc2c[nH]c3ccccc23)C(=O)O)NC(=O)[C@H]2CCCN2C1=O	< 7.01	–
C[C@@H]1NC(=O)[C@H]([C@@H](C)O)NC(=O)CNC(=O)[C@H](Cc2c[nH]cn2)NC(=O)[C@H](Cc2c[nH]c3ccccc23)NC(=O)[C@H](CC(N)=O)NC(=O)CNC(=O)C[C@@H](C(=O)N[C@@H](Cc2c[nH]c3ccccc23)C(=O)N[C@@H](Cc2ccccc2)C(=O)N[C@@H](Cc2ccccc2)C(=O)N[C@@H](CC(N)=O)C(=O)N[C@@H](Cc2ccc(O)cc2)C(=O)N[C@@H](Cc2ccc(O)cc2)C(=O)NCC(=O)O)NC(=O)[C@@H]2CCCN2C1=O (GNWHGTAPDWFFNYYG-OH; lactam N-9)	< 6.28	6.92
C[C@@H]1NC(=O)[C@H]([C@@H](C)O)NC(=O)CNC(=O)[C@H](Cc2c[nH]cn2)NC(=O)[C@H](Cc2c[nH]c3ccccc23)NC(=O)[C@H](CC(N)=O)NC(=O)CNC(=O)C[C@@H](C(=O)N[C@@H](Cc2c[nH]c3ccccc23)C(=O)N[C@@H](Cc2ccccc2)C(=O)N[C@@H](Cc2ccccc2)C(=O)N[C@@H](CC(N)=O)C(=O)N[C@@H](Cc2ccc(O)cc2)C(=O)N[C@@H](Cc2ccc(O)cc2)C(=O)N[C@@H](Cc2ccc3ccccc3c2)C(=O)O)NC(=O)[C@@H]2CCCN2C1=O	–	8.20
